The source made the active and inactive calls. The rule behind the calls is not given here.

The target of the test is Sphingosine 1-phosphate receptor 5 (Homo sapiens) (UniProt Q9H228). The experiment in a line: agonism at human S1PR5 – cell-based, FRET, dose response, counter-screen for S1PR3 antagonist project, late-stage follow-up (AID 743420). The note with it: S1P5 cell-based FRET assay, agonist mode. In general terms: The purpose of a counterscreen is to sort out artefacts and off-target activity.
Chain of Sphingosine 1-phosphate receptor 5 (Homo sapiens) (Q9H228 whole entry, looked up): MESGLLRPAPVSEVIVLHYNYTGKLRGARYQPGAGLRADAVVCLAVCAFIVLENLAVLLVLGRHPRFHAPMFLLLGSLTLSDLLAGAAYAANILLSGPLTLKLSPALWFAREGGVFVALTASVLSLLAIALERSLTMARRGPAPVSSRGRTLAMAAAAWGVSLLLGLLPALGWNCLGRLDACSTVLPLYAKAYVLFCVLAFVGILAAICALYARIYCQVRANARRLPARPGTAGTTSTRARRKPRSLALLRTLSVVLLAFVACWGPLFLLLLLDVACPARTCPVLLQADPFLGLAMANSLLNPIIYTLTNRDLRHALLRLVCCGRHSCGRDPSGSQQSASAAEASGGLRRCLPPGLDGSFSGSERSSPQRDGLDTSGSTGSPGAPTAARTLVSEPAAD

In the case of `O=C(NC(c1ccc(Cl)cc1)c1nc(-c2ccccc2)no1)c1cccc(Cl)c1` (configuration not stated), the EC50 – broadly, the concentration needed to bring the measured effect to its halfway point – was > 28.2 µM (inactive).
`O=C(NC(Cc1ccccc1)c1nc(-c2ccccc2)no1)c1cccc(Cl)c1` (configuration not stated): the EC50 was > 28.2 µM (inactive).
For `O=C(c1cccc(Cl)c1)N(CCO)C(c1ccc(Cl)c(Cl)c1)c1nc(-c2ccccc2)no1` (configuration not stated), the EC50 is > 28.2 µM (inactive).
`O=C(NC(c1ccc(Cl)cc1)c1nc(-c2ccccc2)no1)c1cccc(Br)c1` (configuration not stated): the EC50 was > 28.2 µM (inactive).
The same measure for `O=C(NC(c1ccc(Cl)c(Cl)c1)c1nc(-c2ccccc2)no1)c1ccccc1` (configuration not stated): > 28.2 µM (inactive).
On to `COc1ccc(C(=O)NC(c2ccccc2)c2nc(-c3ccccc3)no2)cc1` (configuration not stated), for which the EC50 is > 28.2 µM (inactive).
On to `O=C(NC(c1ccccc1)c1nc(-c2ccccc2)no1)c1cccc(Br)c1` (configuration not stated), for which the EC50 was > 28.2 µM (inactive).
In the case of `O=C(NC(c1cccc(Cl)c1)c1nc(-c2ccccc2)no1)c1cc(Cl)cc(Cl)c1` (configuration not stated), the EC50 is > 28.2 µM (inactive).
On to `CCc1ccc(C(NC(=O)c2cccc(Cl)c2)c2nc(-c3ccccc3)no2)cc1` (configuration not stated), for which the EC50 was > 28.2 µM (inactive).
`O=C(NC(c1cccc(Cl)c1)c1nc(-c2ccccc2)no1)c1ccc(Cl)c(Cl)c1` (configuration not stated): the EC50 is > 28.2 µM (inactive).
Consider `O=C(NC(c1ccc(Cl)cc1)c1nc(-c2ccccc2)no1)c1ccc(Cl)c(Cl)c1` (configuration not stated), for which the EC50 was > 28.2 µM (inactive).
Take `O=C(NC(c1ccccc1)c1nc(-c2ccccc2)no1)c1cccc(Cl)n1` (configuration not stated): the EC50 was > 28.2 µM (inactive).
As for `O=C(NC(c1ccc(Cl)cc1)c1nc(-c2ccccc2)no1)c1ccc(Cl)c(Br)c1` (configuration not stated), the EC50 was > 28.2 µM (inactive).
Consider `O=C(NC(c1nc(-c2ccccc2)no1)C1CCOCC1)c1ccc(Cl)c(Cl)c1` (configuration not stated), for which the EC50 was > 28.2 µM (inactive).
For `O=C(NC(c1ccc(Cl)c(Cl)c1)c1nc(-c2ccccc2)no1)c1cccc(Cl)c1` (configuration not stated), the EC50 is > 28.2 µM (inactive).
Turning to `O=C(NC(c1cccc(Cl)c1)c1nc(-c2ccccc2)no1)c1cccc(Cl)c1` (configuration not stated), the EC50 was > 28.2 µM (inactive).
Take `O=C(NC(c1nc(-c2ccccc2)no1)C1CCCCC1)c1ccc(Cl)c(Cl)c1` (configuration not stated): the EC50 was > 28.2 µM (inactive).
In the case of `O=C(NC(c1ccc(Cl)c(Cl)c1)c1nc(-c2ccccc2)no1)c1ccc(Cl)c(Cl)c1` (configuration not stated), the EC50 was > 28.2 µM (inactive).
Take `Cc1ccc(C(NC(=O)c2cccc(Cl)c2)c2nc(-c3ccccc3)no2)cc1` (configuration not stated): the EC50 is > 28.2 µM (inactive).
`O=C(NC(c1ccccc1)c1nc(-c2ccccc2)no1)c1cccc(Cl)c1` (configuration not stated): the EC50 is > 28.2 µM (inactive).
As to `N#Cc1ccc(C(=O)NC(c2ccc(Cl)c(Cl)c2)c2nc(-c3ccccc3)no2)cc1` (configuration not stated), the EC50 was > 28.2 µM (inactive).
Turning to `O=C(NC(c1ccc(Cl)cc1)c1nc(-c2ccccn2)no1)c1cccc(Cl)c1` (configuration not stated), the EC50 is > 28.2 µM (inactive).
The same measure for `O=C(NC(c1ccc(Cl)cc1)c1nc(-c2cccc(Cl)c2)no1)c1cccc(Cl)c1` (configuration not stated): > 28.2 µM (inactive); for `Cc1ccc(C(=O)NC(c2ccccc2)c2nc(-c3ccccc3)no2)cc1` (configuration not stated): > 28.2 µM (inactive).
`O=C(NC(c1ccc(Br)cc1)c1nc(-c2ccccc2)no1)c1ccc(Cl)c(Cl)c1` (configuration not stated): the EC50 was > 28.2 µM (inactive).
The result for `O=C(NC(c1ccc(Cl)c(Cl)c1)c1nc(-c2ccccc2)no1)c1ccc(Cl)cc1` (configuration not stated) reads > 28.2 µM (inactive).
Take `O=C(NC(c1ccccc1)c1nc(-c2ccccc2)no1)c1ccc(Cl)cc1` (configuration not stated): the EC50 was > 28.2 µM (inactive).

(Values after PubChem BioAssay AID743420 (The Scripps Research Institute Molecular Screening Center, 2014).)
